This note sets out measurements from ChEMBL document CHEMBL4004829, “Synthesis and antiproliferative activity of a series of novel 6-substituted pyrido[3,2-d]pyrimidines as potential nonclassical lipophilic antifolates targeting dihydrofolate reductase” (Eur J Med Chem, 2017).

The target in one assay is T1, Dihydrofolate reductase (Homo sapiens, UniProt P00374).
T1 sequence (P00374 whole entry): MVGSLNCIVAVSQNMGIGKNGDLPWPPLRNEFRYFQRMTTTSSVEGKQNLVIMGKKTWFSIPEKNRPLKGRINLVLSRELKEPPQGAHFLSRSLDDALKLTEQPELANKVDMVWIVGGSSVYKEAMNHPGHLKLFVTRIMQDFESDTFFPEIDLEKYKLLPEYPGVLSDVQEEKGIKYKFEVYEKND
Briefly: Inhibition of recombinant human DHFR using dihydrofolate as substrate after 15 mins in presence of NADPH.

Assay [1] deals with HL-60. Briefly: Antiproliferative activity against human HL60 cells after 48 hrs by MTS assay. Format: functional, cell-based. To be noted: HL-60, 48 h.
Another assay has as its system HeLa. Briefly: cells. The note with it: Homo sapiens, 48 h.
The next assay relates to A549. Briefly: Antiproliferative activity against human A549 cells after 48 hrs by MTS assay. Format: functional, cell-based. The note with it: A549, 48 h.
For another assay, the system named is NCI-H1299. Briefly: Antiproliferative activity against human NCI-H1299 cells after 48 hrs by MTS assay. The format is functional, cell-based. The note with it: NCI-H1299, 48 h. A general note: Tetrazolium assays rely on reduction of a dye to a coloured formazan, in cell work by metabolically active cells.
Assay [2] deals with HL-60. Kind of assay: Cell cycle arrest in human HL60 cells assessed as S phase at 0.1 uM after 24 hrs by propidium iodide staining based flow cytometry (reference value: 58.7 +/- 0.8%). The format is functional. A general note: In flow cytometry, cells or beads pass a laser one at a time.
In assay [3] the test system is HL-60. Briefly: Cell cycle arrest in human HL60 cells assessed as S phase at 0.05 uM after 24 hrs by propidium iodide staining based flow cytometry (reference value: 58.7 +/- 0.8%). Format: functional.
Assay [4] relates to HL-60. Briefly: Cell cycle arrest in human HL60 cells assessed as G1 phase at 0.4 uM after 24 hrs by propidium iodide staining based flow cytometry (reference value: 29.1 +/- 0.5%). The format is functional.
In assay [5] the test system is HL-60. Briefly: Cell cycle arrest in human HL60 cells assessed as G1 phase at 0.05 uM after 24 hrs by propidium iodide staining based flow cytometry (reference value: 29.1 +/- 0.5%). Format: functional.
The subject of assay [6] is HL-60. Kind of assay: Cell cycle arrest in human HL60 cells assessed as G2/M phase at 0.05 uM after 24 hrs by propidium iodide staining based flow cytometry (reference value: 12.2 +/- 1.1%). The format is functional.
For assay [7], the system named is HL-60. Briefly: Cell cycle arrest in human HL60 cells assessed as G1 phase at 0.8 uM after 24 hrs by propidium iodide staining based flow cytometry (reference value: 29.1 +/- 0.5%). Format: functional.
The test system of assay [8] is HL-60. Briefly: Cell cycle arrest in human HL60 cells assessed as G2/M phase at 0.4 uM after 24 hrs by propidium iodide staining based flow cytometry (reference value: 12.2 +/- 1.1%). The format is functional.
Assay [9] deals with HL-60. Kind of assay: Cell cycle arrest in human HL60 cells assessed as G2/M phase at 0.8 uM after 24 hrs by propidium iodide staining based flow cytometry (reference value: 12.2 +/- 1.1%). Format: functional.
In assay [10] the test system is HL-60. Kind of assay: Cell cycle arrest in human HL60 cells assessed as G1 phase at 0.2 uM after 24 hrs by propidium iodide staining based flow cytometry (reference value: 29.1 +/- 0.5%). The format is functional.
Assay [11] relates to HL-60. Briefly: Cell cycle arrest in human HL60 cells assessed as S phase at 0.8 uM after 24 hrs by propidium iodide staining based flow cytometry (reference value: 58.7 +/- 0.8%). The format is functional.
For assay [12], the system named is HL-60. Kind of assay: Cell cycle arrest in human HL60 cells assessed as G2/M phase at 0.1 uM after 24 hrs by propidium iodide staining based flow cytometry (reference value: 12.2 +/- 1.1%). Format: functional.
The test system of assay [13] is HL-60. Briefly: Cell cycle arrest in human HL60 cells assessed as S phase at 0.2 uM after 24 hrs by propidium iodide staining based flow cytometry (reference value: 58.7 +/- 0.8%). The format is functional.
Assay [14] concerns HL-60. Kind of assay: Cell cycle arrest in human HL60 cells assessed as S phase at 0.4 uM after 24 hrs by propidium iodide staining based flow cytometry (reference value: 58.7 +/- 0.8%). The format is functional.
Assay [15] deals with HL-60. Briefly: Cell cycle arrest in human HL60 cells assessed as G2/M phase at 0.2 uM after 24 hrs by propidium iodide staining based flow cytometry (reference value: 12.2 +/- 1.1%). Format: functional.
Assay [16] relates to HL-60. Kind of assay: Cell cycle arrest in human HL60 cells assessed as G1 phase at 0.1 uM after 24 hrs by propidium iodide staining based flow cytometry (reference value: 29.1 +/- 0.5%). The format is functional.

Description for HeLa: Antiproliferative activity against human HeLa cells after 48 hrs by MTS assay

The IC50 is the midpoint of a concentration-inhibition curve. As to `Nc1nc(N)c2nc(CCc3ccc(Br)cc3)ccc2n1`, the IC50 on Dihydrofolate reductase came to 1.26 µM; in the assay on HL-60 [1], 0.12 µM; in the assay with HeLa it was 4.3 µM; with A549, 22.6 µM; with NCI-H1299, 1.49 µM.

Turning to `COc1cccc(CCc2ccc3nc(N)nc(N)c3n2)c1`, the IC50 on Dihydrofolate reductase is 0.45 µM; in the assay on HL-60 [1], 0.42 µM; with HeLa it was 14.3 µM; with A549, 14.4 µM; in the assay on NCI-H1299 it was 7.03 µM.

Consider `Nc1nc(N)c2nc(/C=C/c3ccc(Cl)cc3)ccc2n1`, for which the IC50 was 16.9 µM at Dihydrofolate reductase; 3.8 µM in the assay on HL-60 [1]; 7.6 µM in the assay on HeLa; 8.17 µM in the assay on A549; 9.39 µM in the assay on NCI-H1299.

Take `Nc1nc(N)c2nc(CCc3ccccc3)ccc2n1`: the IC50 on Dihydrofolate reductase was found to be 2.25 µM; in the assay on HL-60 [1], 0.36 µM; in the assay with HeLa, 8.61 µM; in the assay on A549 it was 9.78 µM; with NCI-H1299 it was 9.16 µM.

Turning to `Nc1nc(N)c2nc(/C=C/c3ccccc3)ccc2n1`, the IC50 at Dihydrofolate reductase is 5.33 µM; with HL-60 [1], 3.85 µM; in the assay on HeLa it was 13.4 µM; in the assay on A549, 13.9 µM; in the assay on NCI-H1299, 15.2 µM.

On to `CC(C)c1ccc(CCc2ccc3nc(N)nc(N)c3n2)cc1`, for which the IC50 at Dihydrofolate reductase was determined as 19 µM; in the assay with HL-60 [1], 0.49 µM; in the assay on HeLa it was 14 µM; with A549, 15.9 µM.

`Nc1nc(N)c2nc(/C=C/c3ccc(Br)cc3)ccc2n1`: the IC50 was determined as 14.8 µM on Dihydrofolate reductase; 2.51 µM with HL-60 [1]; 9.2 µM in the assay on HeLa; 11.9 µM with A549; 6.19 µM in the assay on NCI-H1299.

Take `COc1cc(CCc2ccc3nc(N)nc(N)c3n2)cc(OC)c1OC`: the IC50 on Dihydrofolate reductase came out at 0.29 µM; in the assay with HL-60 [1], 0.42 µM; in the assay with HeLa, 2.9 µM; in the assay on A549, 11.6 µM; in the assay with NCI-H1299, 2.17 µM. For the same compound, the Activity with HL-60 [2] came to 64.3%; in the assay with HL-60 [3], 63%; with HL-60 [4] it was 18%; in the assay with HL-60 [5], 26.3%; in the assay with HL-60 [6] it was 10.7%; in the assay with HL-60 [7], 10%. Also, the Activity in the assay on HL-60 [8] amounted to 4.4%; with HL-60 [9], 1.5%; in the assay on HL-60 [10], 20.2%; with HL-60 [11] it was 88.5%; in the assay on HL-60 [12], 10%; with HL-60 [13] it was 73.2%. Moreover, the values for the Activity in the assay on HL-60 [14], with HL-60 [15] and with HL-60 [16] were 77.6%, 6.6% and 25.7%, respectively.

Take `COc1ccccc1/C=C/c1ccc2nc(N)nc(N)c2n1`: the IC50 at Dihydrofolate reductase came out at 3.61 µM; in the assay on HL-60 [1], 3.6 µM; in the assay with HeLa it was 13.8 µM; with A549, 7.56 µM; in the assay with NCI-H1299, 8.63 µM.

On to `CCc1ccc(/C=C/c2ccc3nc(N)nc(N)c3n2)cc1`, for which the IC50 at Dihydrofolate reductase came to 5.28 µM; with HL-60 [1] it was 1.19 µM; in the assay on HeLa it was 9.86 µM; with A549, 9.13 µM; in the assay on NCI-H1299, 4.86 µM.

As for `Cc1ccc(CCc2ccc3nc(N)nc(N)c3n2)cc1`, the IC50 worked out at 2.55 µM at Dihydrofolate reductase; 0.31 µM in the assay with HL-60 [1]; 52.4 µM in the assay on HeLa; 34.1 µM with A549; 1.61 µM in the assay on NCI-H1299.

Take `Nc1nc(N)c2nc(CCc3ccc(Cl)cc3)ccc2n1`: the IC50 at Dihydrofolate reductase was determined as 2.84 µM; with HL-60 [1] it was 0.27 µM; with HeLa, 5.3 µM; in the assay on A549, 16.3 µM; with NCI-H1299, 1.06 µM.

As to `Nc1nc(N)c2nc(/C=C/c3ccc(F)cc3)ccc2n1`, the IC50 worked out at 4.78 µM on Dihydrofolate reductase; 2.61 µM in the assay on HL-60 [1]; 7.98 µM with HeLa; 6.78 µM in the assay with A549; 5.99 µM in the assay on NCI-H1299.

Consider `COc1cc(/C=C/c2ccc3nc(N)nc(N)c3n2)cc(OC)c1OC`, for which the IC50 on Dihydrofolate reductase was 4 µM; in the assay on HL-60 [1], 2.33 µM; in the assay with HeLa, 2.1 µM; with A549, 5.34 µM; in the assay with NCI-H1299, 3.99 µM.

Turning to `COc1ccc(CCc2ccc3nc(N)nc(N)c3n2)cc1`, the IC50 at Dihydrofolate reductase came to 0.71 µM; in the assay on HL-60 [1], 0.072 µM; with HeLa, 10.5 µM; in the assay on A549 it was 18 µM; in the assay on NCI-H1299, 2.15 µM.

Take `Cc1ccc(/C=C/c2ccc3nc(N)nc(N)c3n2)cc1`: the IC50 is 3.19 µM on Dihydrofolate reductase, 4.54 µM in the assay on HL-60 [1], 14.5 µM in the assay with HeLa and 18.9 µM with A549.

With `COc1cccc(/C=C/c2ccc3nc(N)nc(N)c3n2)c1`, the IC50 on Dihydrofolate reductase is 4.13 µM; in the assay with HL-60 [1], 2.03 µM; in the assay with HeLa it was 18.8 µM; in the assay on A549 it was 9.1 µM; in the assay on NCI-H1299, 12.2 µM.

In the case of `Nc1nc(N)c2nc(CCc3ccc(F)cc3)ccc2n1`, the IC50 at Dihydrofolate reductase worked out at 0.95 µM; in the assay with HL-60 [1], 0.58 µM; in the assay on HeLa, 54 µM; in the assay on A549, 4.98 µM; in the assay with NCI-H1299, 14.8 µM.

In the case of `COc1ccc(/C=C/c2ccc3nc(N)nc(N)c3n2)cc1`, the half-maximal inhibitory concentration (IC50) on Dihydrofolate reductase was determined as 4.34 µM; in the assay with HL-60 [1], 1.63 µM; in the assay with HeLa it was 6.5 µM; in the assay on A549, 5.68 µM; in the assay on NCI-H1299 it was 3.73 µM.

As to `COc1ccccc1CCc1ccc2nc(N)nc(N)c2n1`, the IC50 on Dihydrofolate reductase amounted to 1.67 µM; in the assay on HL-60 [1], 0.8 µM; in the assay with HeLa, 10.4 µM; with A549 it was 29.9 µM; in the assay on NCI-H1299, 4.73 µM.

As to `CC(C)c1ccc(/C=C/c2ccc3nc(N)nc(N)c3n2)cc1`, the IC50 at Dihydrofolate reductase worked out at 20.1 µM; in the assay on HL-60 [1], 1.04 µM; in the assay with HeLa, 10.5 µM; in the assay with A549, 10.7 µM; in the assay on NCI-H1299, 11.2 µM.

With `CCc1ccc(CCc2ccc3nc(N)nc(N)c3n2)cc1`, the IC50 at Dihydrofolate reductase was 2.48 µM; with HL-60 [1], 0.21 µM; in the assay on HeLa it was 49.4 µM; with A549, 15.4 µM; in the assay on NCI-H1299, 2.76 µM.

For the compound `O=c1[nH]cc(F)c(=O)[nH]1` [FLUOROURACIL], the results for the IC50 in the assay with HL-60 [1], in the assay with HeLa and in the assay on NCI-H1299 were 1.62 µM, 62.2 µM and 8.91 µM, respectively.
